In patent US20210386738A1, “COMBINATION OF PRMT5 INHIBITORS AND BCL-2 INHIBITORS” (GLAXOSMITHKLINE INTELLECTUAL PROPERTY DEVELOPMENT LIMITED, priority 2018, published 2021):
Read-outs that look alike come from different tables or passages of the source.

Tested on: lymphoma cell line DB
Assay: Serial dilutions: fixed ABT-199 concentration with Compound A titration, six-day cell proliferation
Assay type: cell-based
Conditions: for EC50 / IC50: 144 h; for EC50 / IC50 / gIC100 / compound A required for gIC100: six days
Protocol: Serial dilutions were performed for the combination to ascertain the change in gIC50, gIC100 and dEC50 when the inhibitors are used together in a PRMT5 inhibitor cell proliferation. A first compound plate was prepared where PRMT5 inhibitor, Compound A, was prepared with a 20-point, two-fold dilution series of compound A from column 1 to 20. A second compound plate was prepared using the BCL-2 inhibitor ABT-199. ABT-199 was titrated in a 16-point 2-fold dilution series from row A to Q. A third plate was then created by added equal volume of 12 ul (ABT-199) from each well in the second plate into the corresponding well in the first plate. The third plate comprised rows from A to Q, each row comprising a fixed concentration of ABT-199. Columns 1-20 comprised varying concentrations of compound A from the 20-point dilution. Plates were incubated for six days at the conditions described above. Lymphoma cell line DB was treated with the solution in each of the wells. Cell growth was measured using CellTiter-Glo (Promega) and luminescence signal was detected with a BioTek Synergy Neo microplate reader. A plate of untreated cells was read at the time of compound/biologic addition to determine the T0 value representing the starting number of cells. Data were fit with a four-parameter equation to generate a concentration response curve for each row using Assay Client software. A comparison was made across each row in the third plate to determine, when keeping a fixed concentration of ABT-199, what concentration of compound A is needed to reach the gIC50, gIC100 or dEC50 respectively and the fold change compared to treating the same cell with compound A alone.
Tables 4a-c show the results of the above serial dilution experiments wherein ‘fold change’ is the difference between the amount of compound A needed to achieve gIC50, gIC100 or dEC50 respectively, compared to the amount of compound A needed to achieve gIC50, gIC100 or dEC50 respectively when compound A is given as a single agent.

[1] = fixed ABT-199 with compound A titration, vs compound A alone

In the case of `CC1(C)CCC(CN2CCN(c3ccc(C(=O)NS(=O)(=O)c4ccc(NCC5CCOCC5)c([N+](=O)[O-])c4)c(Oc4cnc5[nH]ccc5c4)c3)CC2)=C(c2ccc(Cl)cc2)C1` [ABT-199, venetoclax, reference compound], the EC50 (single agent, read-out: dEC50) is reported as > 7.33 µM, the IC50 (single agent, read-out: gIC50) is reported as 6.41 µM and the “concentration of ABT-199 at which ≥3 fold change was achieved in dEC50” value (fixed ABT-199 with compound A titration) is reported as 1833 nM. For the same compound, the “concentration of ABT-199 at which ≥3 fold change was achieved in gIC50” value [1] was 115 nM, the “concentration of ABT-199 at which ≥3 fold change was achieved in gIC100” value [1] was 458 nM and the gIC100 (single agent) was 7.331 µM.

In the case of `O=C(NC[C@H](O)CN1CCc2ccccc2C1)c1ccnc(NC2CCC2)c1` [Compound A], the EC50 (single agent, read-out: dEC50) is reported as > 7.33 µM, the IC50 (single agent, read-out: gIC50) is reported as 0.631 µM and the EC50 (with fixed ABT-199 1 nM, read-out: Compound A required for dEC50) is reported as > 7.33 µM. The IC50 (with fixed ABT-199 1 nM, read-out: compound A required for gIC50) was 0.445 µM, the EC50 (with fixed ABT-199 2 nM, read-out: Compound A required for dEC50) was > 7.33 µM and the IC50 (with fixed ABT-199 2 nM, read-out: compound A required for gIC50) was 0.509 µM. For the same compound, the EC50 (with fixed ABT-199 4 nM, read-out: Compound A required for dEC50) was > 7.33 µM, the IC50 (with fixed ABT-199 4 nM, read-out: compound A required for gIC50) was 0.514 µM and the EC50 (with fixed ABT-199 7 nM, read-out: Compound A required for dEC50) was > 7.33 µM. The IC50 (with fixed ABT-199 7 nM, read-out: compound A required for gIC50) was 0.449 µM, the EC50 (with fixed ABT-199 14 nM, read-out: Compound A required for dEC50) was > 7.33 µM and the IC50 (with fixed ABT-199 14 nM, read-out: compound A required for gIC50) was 0.387 µM. The EC50 (with fixed ABT-199 29 nM, read-out: Compound A required for dEC50) was > 7.33 µM, the IC50 (with fixed ABT-199 29 nM, read-out: compound A required for gIC50) was 0.351 µM and the EC50 (with fixed ABT-199 57 nM, read-out: Compound A required for dEC50) was 5.37 µM. It also gave an IC50 (with fixed ABT-199 57 nM, read-out: compound A required for gIC50) of 0.247 µM, an EC50 (with fixed ABT-199 115 nM, read-out: Compound A required for dEC50) of 4.66 µM and an IC50 (with fixed ABT-199 115 nM, read-out: compound A required for gIC50) of 0.209 µM. For the same compound, the EC50 (with fixed ABT-199 229 nM, read-out: Compound A required for dEC50) was 4.66 µM, the IC50 (with fixed ABT-199 229 nM, read-out: compound A required for gIC50) was 0.115 µM and the EC50 (with fixed ABT-199 458 nM, read-out: Compound A required for dEC50) was 3.92 µM. The IC50 (with fixed ABT-199 458 nM, read-out: compound A required for gIC50) was 0.119 µM, the EC50 (with fixed ABT-199 916 nM, read-out: Compound A required for dEC50) was 2.53 µM and the IC50 (with fixed ABT-199 916 nM, read-out: compound A required for gIC50) was 0.078 µM. For the same compound, the EC50 (with fixed ABT-199 1833 nM, read-out: Compound A required for dEC50) was 2.39 µM, the IC50 (with fixed ABT-199 1833 nM, read-out: compound A required for gIC50) was 0.074 µM and the EC50 (with fixed ABT-199 3666 nM, read-out: Compound A required for dEC50) was 2.25 µM. For the same compound, the IC50 (with fixed ABT-199 3666 nM, read-out: compound A required for gIC50) was 0.08 µM, the EC50 (with fixed ABT-199 7331 nM, read-out: Compound A required for dEC50) was 2.29 µM and the IC50 (with fixed ABT-199 7331 nM, read-out: compound A required for gIC50) was 0.015 µM. The “Fold change over compound A single agent gIC50 (631 nM, most potent of the two agents)” value (single agent) was 1.0, the “Fold change over compound A single agent gIC100 (6489 nM, most potent of the two agents)” value (single agent) was 1.0 and the gIC100 (single agent) was 6.489 µM. For the same compound, the “Fold change over compound A single agent gIC50 (631 nM, most potent of the two agents)” value (with fixed ABT-199 1 nM) was 1.4, the “Fold change over compound A single agent gIC100 (6489 nM, most potent of the two agents)” value (with fixed ABT-199 1 nM) was 0.9 and the “compound A required for gIC100” value (with fixed ABT-199 1 nM) was 7331 nM. For the same compound, the “Fold change over compound A single agent gIC50 (631 nM, most potent of the two agents)” value (with fixed ABT-199 2 nM) was 1.2, the “Fold change over compound A single agent gIC100 (6489 nM, most potent of the two agents)” value (with fixed ABT-199 2 nM) was 0.9 and the “compound A required for gIC100” value (with fixed ABT-199 2 nM) was 7331 nM. The “Fold change over compound A single agent gIC50 (631 nM, most potent of the two agents)” value (with fixed ABT-199 4 nM) was 1.2, the “Fold change over compound A single agent gIC100 (6489 nM, most potent of the two agents)” value (with fixed ABT-199 4 nM) was 0.9 and the “compound A required for gIC100” value (with fixed ABT-199 4 nM) was 6989 nM. For the same compound, the “Fold change over compound A single agent gIC50 (631 nM, most potent of the two agents)” value (with fixed ABT-199 7 nM) was 1.4, the “Fold change over compound A single agent gIC100 (6489 nM, most potent of the two agents)” value (with fixed ABT-199 7 nM) was 1.0 and the “compound A required for gIC100” value (with fixed ABT-199 7 nM) was 6362 nM. For the same compound, the “Fold change over compound A single agent gIC50 (631 nM, most potent of the two agents)” value (with fixed ABT-199 14 nM) was 1.6, the “Fold change over compound A single agent gIC100 (6489 nM, most potent of the two agents)” value (with fixed ABT-199 14 nM) was 0.9 and the “compound A required for gIC100” value (with fixed ABT-199 14 nM) was 6896 nM. The “Fold change over compound A single agent gIC50 (631 nM, most potent of the two agents)” value (with fixed ABT-199 29 nM) was 1.8, the “Fold change over compound A single agent gIC100 (6489 nM, most potent of the two agents)” value (with fixed ABT-199 29 nM) was 1.2 and the “compound A required for gIC100” value (with fixed ABT-199 29 nM) was 5525 nM. For the same compound, the “Fold change over compound A single agent gIC50 (631 nM, most potent of the two agents)” value (with fixed ABT-199 57 nM) was 2.6, the “Fold change over compound A single agent gIC100 (6489 nM, most potent of the two agents)” value (with fixed ABT-199 57 nM) was 2.2 and the “Fold change over top concentration of compound A or ABT-199 inhibitor used in the assay (since no dEC50 observed with single agents)” value (with fixed ABT-199 57 nM) was 1.2. The “compound A required for gIC100” value (with fixed ABT-199 57 nM) was 3004 nM, the “Fold change over compound A single agent gIC50 (631 nM, most potent of the two agents)” value (with fixed ABT-199 115 nM) was 3.0 and the “Fold change over compound A single agent gIC100 (6489 nM, most potent of the two agents)” value (with fixed ABT-199 115 nM) was 2.4. For the same compound, the “Fold change over top concentration of compound A or ABT-199 inhibitor used in the assay (since no dEC50 observed with single agents)” value (with fixed ABT-199 115 nM) was 1.4, the “compound A required for gIC100” value (with fixed ABT-199 115 nM) was 2716 nM and the “Fold change over compound A single agent gIC50 (631 nM, most potent of the two agents)” value (with fixed ABT-199 229 nM) was 5.5. For the same compound, the “Fold change over compound A single agent gIC100 (6489 nM, most potent of the two agents)” value (with fixed ABT-199 229 nM) was 2.5, the “Fold change over top concentration of compound A or ABT-199 inhibitor used in the assay (since no dEC50 observed with single agents)” value (with fixed ABT-199 229 nM) was 1.4 and the “compound A required for gIC100” value (with fixed ABT-199 229 nM) was 2624 nM. The “Fold change over compound A single agent gIC50 (631 nM, most potent of the two agents)” value (with fixed ABT-199 458 nM) was 5.3, the “Fold change over compound A single agent gIC100 (6489 nM, most potent of the two agents)” value (with fixed ABT-199 458 nM) was 3.1 and the “Fold change over top concentration of compound A or ABT-199 inhibitor used in the assay (since no dEC50 observed with single agents)” value (with fixed ABT-199 458 nM) was 1.7. For the same compound, the “compound A required for gIC100” value (with fixed ABT-199 458 nM) was 2118 nM, the “Fold change over compound A single agent gIC50 (631 nM, most potent of the two agents)” value (with fixed ABT-199 916 nM) was 8.1 and the “Fold change over compound A single agent gIC100 (6489 nM, most potent of the two agents)” value (with fixed ABT-199 916 nM) was 3.3. The “Fold change over top concentration of compound A or ABT-199 inhibitor used in the assay (since no dEC50 observed with single agents)” value (with fixed ABT-199 916 nM) was 2.6, the “compound A required for gIC100” value (with fixed ABT-199 916 nM) was 1994 nM and the “Fold change over compound A single agent gIC50 (631 nM, most potent of the two agents)” value (with fixed ABT-199 1833 nM) was 8.5. For the same compound, the “Fold change over compound A single agent gIC100 (6489 nM, most potent of the two agents)” value (with fixed ABT-199 1833 nM) was 4.0, the “Fold change over top concentration of compound A or ABT-199 inhibitor used in the assay (since no dEC50 observed with single agents)” value (with fixed ABT-199 1833 nM) was 3.1 and the “compound A required for gIC100” value (with fixed ABT-199 1833 nM) was 1604 nM. The “Fold change over compound A single agent gIC50 (631 nM, most potent of the two agents)” value (with fixed ABT-199 3666 nM) was 7.8, the “Fold change over compound A single agent gIC100 (6489 nM, most potent of the two agents)” value (with fixed ABT-199 3666 nM) was 3.7 and the “Fold change over top concentration of compound A or ABT-199 inhibitor used in the assay (since no dEC50 observed with single agents)” value (with fixed ABT-199 3666 nM) was 3.3. The “compound A required for gIC100” value (with fixed ABT-199 3666 nM) was 1745 nM, the “Fold change over compound A single agent gIC50 (631 nM, most potent of the two agents)” value (with fixed ABT-199 7331 nM) was 43 and the “Fold change over compound A single agent gIC100 (6489 nM, most potent of the two agents)” value (with fixed ABT-199 7331 nM) was 3.8. The “Fold change over top concentration of compound A or ABT-199 inhibitor used in the assay (since no dEC50 observed with single agents)” value (with fixed ABT-199 7331 nM) was 3.2 and the “compound A required for gIC100” value (with fixed ABT-199 7331 nM) was 1707 nM.
